In ChEMBL document CHEMBL1828590 (J Med Chem, 2011):
Active and inactive are the calls of the source. No cut-off for these calls is given here.

Tests used:
[1] = Time required for attaining concentration above IC50 of HCT116 in tumor of nude BALB/c mouse xenografted with HCT116 cells at 100 mg/kg, po administered as single dose; format: ADME, organism-based, Neoplasm, HCT-116; parameters: dose 100 mg/kg, route oral; conditions: in vivo
[2] = Plasma protein binding in mouse at 1000 ng/mL; format: ADME, cell-free; conditions: read-out: PPB (converted)
[3] = biological target: Stromelysin-1 (Homo sapiens) (UniProt P08254); experiment: Inhibition of MMP3 at 10 uM
Sequence of Stromelysin-1 (Homo sapiens) (P08254 100-477 limits assumed): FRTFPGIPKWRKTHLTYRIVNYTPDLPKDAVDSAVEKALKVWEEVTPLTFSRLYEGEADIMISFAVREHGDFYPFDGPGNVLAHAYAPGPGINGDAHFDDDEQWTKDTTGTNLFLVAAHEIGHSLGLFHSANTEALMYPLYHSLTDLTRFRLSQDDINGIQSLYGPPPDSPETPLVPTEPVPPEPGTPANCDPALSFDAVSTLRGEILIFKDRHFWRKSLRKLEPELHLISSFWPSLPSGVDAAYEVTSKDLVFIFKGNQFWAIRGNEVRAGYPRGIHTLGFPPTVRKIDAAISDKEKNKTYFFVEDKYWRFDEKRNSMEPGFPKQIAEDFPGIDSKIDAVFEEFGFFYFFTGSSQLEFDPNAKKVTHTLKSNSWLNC

A2780 [4] = experiment: Antiproliferative activity against human A2780 cells after 96 hrs by celltiter 96 assay; format: functional, cell-based; conditions: A2780, 96 h
HCT-116 = experiment: Antiproliferative activity against human HCT116 cells after 96 hrs by celltiter 96 assay; format: functional, cell-based; conditions: HCT-116, 96 h
[5] = biological target: T1, Polyamine deacetylase HDAC10 (Homo sapiens, UniProt Q969S8)
T1 sequence (Q969S8 whole entry): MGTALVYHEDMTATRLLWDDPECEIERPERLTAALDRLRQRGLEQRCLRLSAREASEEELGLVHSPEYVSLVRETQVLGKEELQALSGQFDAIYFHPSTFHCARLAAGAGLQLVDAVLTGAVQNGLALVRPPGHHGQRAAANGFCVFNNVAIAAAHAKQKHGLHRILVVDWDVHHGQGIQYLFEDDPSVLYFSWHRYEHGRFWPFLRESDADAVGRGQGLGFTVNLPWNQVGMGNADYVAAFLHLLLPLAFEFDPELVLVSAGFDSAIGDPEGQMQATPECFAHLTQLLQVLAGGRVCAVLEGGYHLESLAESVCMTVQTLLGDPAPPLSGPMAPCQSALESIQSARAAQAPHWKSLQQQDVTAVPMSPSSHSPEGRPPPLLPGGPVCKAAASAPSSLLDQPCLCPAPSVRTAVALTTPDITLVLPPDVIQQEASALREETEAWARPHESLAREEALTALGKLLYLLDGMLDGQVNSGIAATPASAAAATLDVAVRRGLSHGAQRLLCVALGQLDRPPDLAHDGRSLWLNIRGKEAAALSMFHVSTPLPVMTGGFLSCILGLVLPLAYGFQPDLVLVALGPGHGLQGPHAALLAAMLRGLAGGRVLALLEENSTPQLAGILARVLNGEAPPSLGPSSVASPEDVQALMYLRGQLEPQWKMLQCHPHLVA
Description: Competitive inhibition of HDAC10 using KI-104 as substrate by fluorescence assay

Histone deacetylase 11 = biological target: T2, Histone deacetylase 11 (Homo sapiens, UniProt Q96DB2)
T2 sequence (Q96DB2 whole entry): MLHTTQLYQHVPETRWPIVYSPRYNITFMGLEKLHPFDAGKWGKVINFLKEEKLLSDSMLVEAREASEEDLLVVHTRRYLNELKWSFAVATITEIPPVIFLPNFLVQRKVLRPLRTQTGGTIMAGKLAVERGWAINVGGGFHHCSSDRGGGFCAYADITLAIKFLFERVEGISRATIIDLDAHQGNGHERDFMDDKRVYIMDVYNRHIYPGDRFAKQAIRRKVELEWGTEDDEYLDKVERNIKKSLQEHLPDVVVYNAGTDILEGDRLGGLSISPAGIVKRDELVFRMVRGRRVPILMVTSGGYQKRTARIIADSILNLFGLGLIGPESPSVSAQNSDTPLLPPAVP
Description: Competitive inhibition of HDAC11 using KI-104 as substrate by fluorescence assay

[6] = Solubility of the compound in 1% methylcellulose/0.1% Tween 80; format: physicochemical
[7] = Terminal half life in nude BALB/c mouse at 10 mg/kg, iv; format: ADME, organism-based; parameters: dose 10 mg/kg, route intravenous; conditions: in vivo, read-out: beta t1/2 (converted)
[8] = Terminal half life in nude BALB/c mouse at 50 mg/kg, po; format: ADME, organism-based; parameters: dose 50 mg/kg, route oral; conditions: in vivo, read-out: beta t1/2 (converted)
[9] = AUC (0 to infinity) in nude BALB/c mouse at 50 mg/kg, po; format: ADME, organism-based; parameters: time infinity, dose 50 mg/kg, route oral; conditions: plasma
[10] = Oral bioavailability in nude BALB/c mouse at 50 mg/kg; format: ADME, organism-based; conditions: in vivo
[11] = Apparent oral clearance in Wistar rat at 10 mg/kg, po; format: ADME, organism-based; parameters: dose 10 mg/kg, route oral; conditions: in vivo
[12] = Oral bioavailability in Wistar rat at 10 mg/kg; format: ADME, organism-based; conditions: in vivo
[13] = Terminal half life in Beagle dog at 2 mg/kg, iv; format: ADME, organism-based, Canis lupus familiaris; parameters: dose 2 mg/kg, route intravenous; conditions: in vivo, read-out: beta t1/2 (converted)
[14] = Apparent oral clearance in Beagle dog at 2 mg/kg, iv; format: ADME, organism-based, Canis lupus familiaris; parameters: dose 2 mg/kg; conditions: in vivo
[15] = Oral bioavailability in Beagle dog at 10 mg/kg; format: ADME, organism-based, Canis lupus familiaris; conditions: in vivo
[16] = Toxicity in po dosed athymic nu/nu Harlan mouse with xenografted human HCT116 cells assessed as maximum tolerated administered qd for 21 days; format: organism-based, HCT-116; conditions: in vivo
A2780 [17] = experiment: Antitumor activity against human A2780 cells xenografted in nude BALB/c mouse assessed as tumor growth inhibition at 100 mg/kg, po qd for 21 days measured on day 9; format: functional; conditions: read-out: TGI
Mus musculus [18] = experiment: Toxicity in nude BALB/c mouse xenografted with human PC3 cells assessed as maximum body weight loss at 50 mg/kg, po QD for 21 days measured on day 17; format: organism-based, PC-3; parameters: dose 50 mg/kg, route oral; conditions: in vivo, 504 h
Ramos = experiment: Antitumor activity against human Ramos cells xenografted in nude BALB/c mouse assessed as tumor growth inhibition at 50 mg/kg, po qd for 21 days measured on day 15; format: functional; conditions: read-out: TGI
MV4-11 = experiment: Antitumor activity against human MV4-11 cells xenografted in nude BALB/c mouse assessed as tumor growth inhibition at 25 mg/kg, po qd for 21 days measured on day 21; format: functional; conditions: MV4-11, 504 h, read-out: TGI
Mus musculus [19] = experiment: Toxicity in nude BALB/c mouse xenografted with human MV4-11 cells assessed as maximum body weight loss at 25 mg/kg, po QD for 21 days measured on day 10; format: organism-based; parameters: dose 25 mg/kg, route oral; conditions: in vivo, 504 h
Histone deacetylase 2 = Histone deacetylase 2 (Homo sapiens, UniProt Q92769)
Sequence of Histone deacetylase 2 (Q92769 whole entry): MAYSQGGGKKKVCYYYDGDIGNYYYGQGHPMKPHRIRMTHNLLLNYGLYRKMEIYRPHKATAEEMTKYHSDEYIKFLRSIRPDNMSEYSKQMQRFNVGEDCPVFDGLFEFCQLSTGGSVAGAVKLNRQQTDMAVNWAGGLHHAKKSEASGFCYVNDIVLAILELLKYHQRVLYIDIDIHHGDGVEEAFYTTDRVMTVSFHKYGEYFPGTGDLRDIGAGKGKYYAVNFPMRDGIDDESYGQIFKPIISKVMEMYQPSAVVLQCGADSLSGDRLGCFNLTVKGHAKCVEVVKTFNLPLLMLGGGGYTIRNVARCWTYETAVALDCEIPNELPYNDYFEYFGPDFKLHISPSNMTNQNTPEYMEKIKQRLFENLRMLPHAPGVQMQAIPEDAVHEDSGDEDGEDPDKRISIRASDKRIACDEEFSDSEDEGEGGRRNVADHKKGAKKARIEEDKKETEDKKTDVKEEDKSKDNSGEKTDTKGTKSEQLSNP
Description: Competitive inhibition of HDAC2 using KI-104 as substrate by fluorescence assay

Histone deacetylase 3 = Histone deacetylase 3 (Homo sapiens, UniProt O15379)
Sequence of Histone deacetylase 3 (O15379 whole entry): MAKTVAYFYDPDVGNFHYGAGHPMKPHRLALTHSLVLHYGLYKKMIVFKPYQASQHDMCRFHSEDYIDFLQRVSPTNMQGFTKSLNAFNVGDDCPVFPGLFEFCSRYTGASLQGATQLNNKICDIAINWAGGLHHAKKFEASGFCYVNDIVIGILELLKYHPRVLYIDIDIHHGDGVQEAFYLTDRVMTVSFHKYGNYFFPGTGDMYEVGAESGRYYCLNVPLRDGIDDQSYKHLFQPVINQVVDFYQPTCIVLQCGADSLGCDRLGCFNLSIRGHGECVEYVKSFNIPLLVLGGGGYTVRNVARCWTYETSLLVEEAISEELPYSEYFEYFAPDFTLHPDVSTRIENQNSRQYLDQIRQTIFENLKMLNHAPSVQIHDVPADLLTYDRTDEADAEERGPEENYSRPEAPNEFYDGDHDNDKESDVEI
Description: Competitive inhibition of HDAC3 using KI-104 as substrate by fluorescence assay

Histone deacetylase 8 = biological target: T3, Histone deacetylase 8 (Homo sapiens, UniProt Q9BY41)
T3 sequence (Q9BY41 whole entry): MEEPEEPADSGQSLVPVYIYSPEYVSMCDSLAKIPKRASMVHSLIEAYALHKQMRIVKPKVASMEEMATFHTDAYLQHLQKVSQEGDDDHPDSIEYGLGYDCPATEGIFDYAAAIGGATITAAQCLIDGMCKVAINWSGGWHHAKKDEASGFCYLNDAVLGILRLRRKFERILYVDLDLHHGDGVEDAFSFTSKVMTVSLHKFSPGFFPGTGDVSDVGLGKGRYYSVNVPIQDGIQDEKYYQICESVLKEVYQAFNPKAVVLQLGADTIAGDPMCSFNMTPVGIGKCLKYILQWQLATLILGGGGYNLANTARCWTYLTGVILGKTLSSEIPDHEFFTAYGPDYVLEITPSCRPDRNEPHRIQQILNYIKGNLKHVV
Description: Competitive inhibition of HDAC8 using KI-104 as substrate by fluorescence assay

Cytochrome P450 3A4 [20] = biological target: T4, Cytochrome P450 3A4 (Homo sapiens, UniProt P08684); experiment: Inhibition of recombinant CYP3A4 after 30 mins by fluorescence assay; format: ADME
T4 sequence (P08684 whole entry): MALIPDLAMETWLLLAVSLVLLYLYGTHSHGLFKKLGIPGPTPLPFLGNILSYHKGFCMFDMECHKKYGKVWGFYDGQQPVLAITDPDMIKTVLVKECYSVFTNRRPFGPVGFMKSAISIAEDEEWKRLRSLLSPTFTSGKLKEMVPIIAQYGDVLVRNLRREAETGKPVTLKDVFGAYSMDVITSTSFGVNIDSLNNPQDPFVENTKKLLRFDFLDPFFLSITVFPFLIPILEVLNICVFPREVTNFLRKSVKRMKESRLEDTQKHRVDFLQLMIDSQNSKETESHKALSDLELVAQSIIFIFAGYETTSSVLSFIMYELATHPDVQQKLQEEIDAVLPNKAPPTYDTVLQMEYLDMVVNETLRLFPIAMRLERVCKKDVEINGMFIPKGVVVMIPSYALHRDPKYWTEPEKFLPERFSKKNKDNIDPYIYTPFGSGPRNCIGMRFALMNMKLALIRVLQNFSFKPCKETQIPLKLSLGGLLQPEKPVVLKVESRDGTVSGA

Histone deacetylase 1 = Histone deacetylase 1 (Homo sapiens, UniProt Q13547)
Sequence of Histone deacetylase 1 (Q13547 whole entry): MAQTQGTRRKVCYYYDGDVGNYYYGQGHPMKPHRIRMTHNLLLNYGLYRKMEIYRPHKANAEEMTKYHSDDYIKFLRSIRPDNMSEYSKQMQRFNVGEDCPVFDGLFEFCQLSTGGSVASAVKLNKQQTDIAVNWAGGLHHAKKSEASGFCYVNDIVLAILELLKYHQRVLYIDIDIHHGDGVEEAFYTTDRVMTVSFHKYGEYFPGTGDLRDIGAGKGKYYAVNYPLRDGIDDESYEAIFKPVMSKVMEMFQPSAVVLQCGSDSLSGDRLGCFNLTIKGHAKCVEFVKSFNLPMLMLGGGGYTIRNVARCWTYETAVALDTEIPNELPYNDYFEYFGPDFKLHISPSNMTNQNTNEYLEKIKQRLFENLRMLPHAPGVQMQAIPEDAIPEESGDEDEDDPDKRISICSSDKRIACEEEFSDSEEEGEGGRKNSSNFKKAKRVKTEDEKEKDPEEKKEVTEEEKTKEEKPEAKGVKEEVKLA
Description: Inhibition of full length recombinant HDAC1 using Fluor de Lys as substrate by fluorescence assay

Cytochrome P450 3A4 [21] = biological target: T4, Cytochrome P450 3A4; experiment: Inhibition of CYP3A4 in human liver microsomes

| SMILES | IC50 (A2780 [4]) | IC50 (HCT-116) | Ki [5] | Ki (Histone deacetylase 11) | bioavailability [10] | bioavailability [12] | bioavailability [15] | MTD at 504 h [16] | Ki (Histone deacetylase 2) | Ki (Histone deacetylase 3) | Ki (Histone deacetylase 8) | IC50 (Cytochrome P450 3A4 [20]) | IC50 (Histone deacetylase 1) | IC50 (Cytochrome P450 3A4 [21]) | further results |
| --- | --- | --- | --- | --- | --- | --- | --- | --- | --- | --- | --- | --- | --- | --- | --- |
| CCCCc1nc2cc(/C=C/C(=O)NO)ccc2n1CCN(CC)CC.Cl.Cl | 480 nM | 480 nM | 23 nM | 24 nM | 34% | 3.1% | 65% | 50 mg/kg | 27 nM | – | – | – | – | – | Time [1]: 7.1 h; fraction unbound at 1000 ng/mL [2]: 0.061; inhibition [3]: inactive; solubility [6]: > 25 mg/mL; half-life [7]: 2.26 h; half-life [8]: 2.44 h; AUC(0-inf) [9]: 4.27 µM·h; CL/F [11]: 2550 mL/min/kg; half-life [13]: 3.9 h; CL/F [14]: 24.2 mL/min/kg; inhibition in vivo at 100 mg/kg (A2780 [17]): 63%; Activity (Mus musculus [18]): 7.7%; inhibition in vivo at 50 mg/kg (Ramos): 75%; inhibition in vivo at 25 mg/kg (MV4-11): 61%; Activity (Mus musculus [19]): 10% |
| CN(C)CC(C)(C)Cn1c(CC(C)(C)C)nc2cc(/C=C/C(=O)NO)ccc21 | 440 nM | 800 nM | 34 nM | 14 nM | 51% | 4% | 110% | – | 26 nM | 20 nM | 65 nM | 2280 nM | 46 nM | > 25000 nM | – |
| CCCCCCc1nc2cc(/C=C/C(=O)NO)ccc2n1CCN(C)C | 230 nM | 330 nM | 13 nM | 11 nM | – | – | – | 200 mg/kg | 21 nM | 20 nM | 136 nM | 330 nM | 28 nM | > 25000 nM | – |
